Values quoted from earlier work, collected in patent US20070010487A1 (priority 2005, published 2007).

Molecular target: P-gp efflux (Homo sapiens, UniProt P08183)
Sequence (P08183 whole entry): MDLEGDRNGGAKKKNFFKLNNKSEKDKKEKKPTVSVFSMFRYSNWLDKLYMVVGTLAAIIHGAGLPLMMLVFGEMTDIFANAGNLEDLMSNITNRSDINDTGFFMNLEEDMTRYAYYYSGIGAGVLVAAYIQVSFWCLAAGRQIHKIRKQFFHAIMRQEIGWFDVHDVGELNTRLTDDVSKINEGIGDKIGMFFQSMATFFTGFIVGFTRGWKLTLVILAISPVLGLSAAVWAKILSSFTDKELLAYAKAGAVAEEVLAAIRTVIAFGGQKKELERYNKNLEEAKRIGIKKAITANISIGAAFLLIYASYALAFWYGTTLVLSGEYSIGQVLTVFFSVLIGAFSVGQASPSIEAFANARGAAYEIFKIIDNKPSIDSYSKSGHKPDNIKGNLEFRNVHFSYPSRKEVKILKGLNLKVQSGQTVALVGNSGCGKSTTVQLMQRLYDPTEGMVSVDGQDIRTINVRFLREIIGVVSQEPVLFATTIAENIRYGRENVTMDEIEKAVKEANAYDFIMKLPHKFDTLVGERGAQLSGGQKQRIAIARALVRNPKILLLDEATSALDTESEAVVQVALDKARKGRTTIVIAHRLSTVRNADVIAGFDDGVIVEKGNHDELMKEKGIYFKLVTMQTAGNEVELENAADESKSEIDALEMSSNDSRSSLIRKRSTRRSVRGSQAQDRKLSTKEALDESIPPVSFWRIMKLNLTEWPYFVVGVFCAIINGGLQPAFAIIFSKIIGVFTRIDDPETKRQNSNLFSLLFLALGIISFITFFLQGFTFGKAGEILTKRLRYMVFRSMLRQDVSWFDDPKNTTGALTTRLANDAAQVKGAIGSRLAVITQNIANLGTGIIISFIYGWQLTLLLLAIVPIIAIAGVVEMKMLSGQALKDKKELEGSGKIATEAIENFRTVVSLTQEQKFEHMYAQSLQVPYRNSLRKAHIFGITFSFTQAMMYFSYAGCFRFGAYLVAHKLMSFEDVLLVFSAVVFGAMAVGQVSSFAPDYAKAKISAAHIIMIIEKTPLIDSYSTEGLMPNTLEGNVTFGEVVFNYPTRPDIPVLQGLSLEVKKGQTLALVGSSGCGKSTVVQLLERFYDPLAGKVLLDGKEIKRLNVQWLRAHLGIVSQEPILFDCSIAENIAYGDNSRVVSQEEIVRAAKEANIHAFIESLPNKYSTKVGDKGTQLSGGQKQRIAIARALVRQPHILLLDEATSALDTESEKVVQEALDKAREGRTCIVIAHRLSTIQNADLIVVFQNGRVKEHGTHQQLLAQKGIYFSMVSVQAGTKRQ

O[C@@H](COc1cccc2ncccc12)CN1CCN([C@@H]2c3ccccc3[C@@H]3[C@H](c4ccccc42)C3(F)F)CC1 [Zosuquidar]
substrate for P-gp efflux: does not appear to be a substrate for P-gp efflux
